Literature values, collected in patent US5977116A, “Piperazine, piperidine and tetrahydropyridine derivatives” (Merck Sharp & Dohme Ltd., priority 1995, dated 1999).

System: human 5-HT1Dα and 5-HT1Dβ receptor subtypes
Details: cf. WO-A-91/17174, Table 1

discrimination between human 5-HT1Dα and 5-HT1Dβ receptor subtypes: barely discriminates
SMILES: CNS(=O)(=O)Cc1ccc2[nH]cc(CCN(C)C)c2c1 [sumatriptan]
